From US10961264B2, “Process for isolating a (thio)phosphoric acid derivative” (BASF SE, priority 2015, dated 2021)

Key:
[1] = as described in U.S. Pat. No. 8,513,460 B1; cited from earlier work
[2] = Solubility of the (thio)phosphoric acid derivative in process solvents; type: physicochemical

Structure (SMILES) | dissolution in toluene [1] | solubility in dichloromethane ([2]; dichloromethane, even at higher temperatures of 30° C. to 80° C.) | dissolution in dichloromethane in amounts comparable to NBPT ([2]; dichloromethane, same conditions as NBPT) | dissolution in ethyl acetate ([2]; ethyl acetate, upon moderate heating, precipitates again on cooling to room temperature) | solubility in aromatic solvents such as toluene ([2]; toluene, even at higher temperatures of 30° C. to 80° C.) | dissolution in toluene in amounts comparable to NBPT ([2]; toluene, same conditions as NBPT) | solubility in toluene ([2]; toluene, upon heating the product mixture (work-up of U.S. Pat. No. 8,513,460 B1))
CCCCNP(N)(N)=S [NBPT, N-(n-butyl)thiophosphoric acid triamide] | can be dissolved | – | – | – | – | – | –
CCCNP(N)(N)=S [NPPT, N-(n-propyl)thiophosphoric acid triamide] | – | poor solubility | not possible to dissolve | can be dissolved to a large extent | poor solubility | not possible to dissolve | not sufficiently soluble
